Test results from patent US10351559B2, “Maleate salts of a B-RAF kinase inhibitor, crystalline forms, methods of preparation, and uses therefore” (BeiGene, Ltd., priority 2015, dated 2019).
Where a name gives a salt, the structure may show the parent alone.

Columns and labels:
[1] = hygroscopicity (moisture sorption) by DVS; assay type: physicochemical; conditions: exposed to 95% RH, DVS
Text: The free base of Compound 1 was obtained originally as an amorphous solid, which is slightly hygroscopic with 2.2% water gain from 0 to 80% RH. No form transformation was observed after dynamic vapor sorption (DVS).

[2] = test system: BRAF V600E and KRAS cancers; assay: Phase I clinical study; assay type: in vivo, human; conditions: capsules, 5-50 mg single doses, 25 subjects
[3] = target: wild-type Braf (Homo sapiens, UniProt P15056); assay: Raf kinase enzymatic assay (HTRF); assay type: biochemical
Sequence of wild-type Braf (P15056 whole entry): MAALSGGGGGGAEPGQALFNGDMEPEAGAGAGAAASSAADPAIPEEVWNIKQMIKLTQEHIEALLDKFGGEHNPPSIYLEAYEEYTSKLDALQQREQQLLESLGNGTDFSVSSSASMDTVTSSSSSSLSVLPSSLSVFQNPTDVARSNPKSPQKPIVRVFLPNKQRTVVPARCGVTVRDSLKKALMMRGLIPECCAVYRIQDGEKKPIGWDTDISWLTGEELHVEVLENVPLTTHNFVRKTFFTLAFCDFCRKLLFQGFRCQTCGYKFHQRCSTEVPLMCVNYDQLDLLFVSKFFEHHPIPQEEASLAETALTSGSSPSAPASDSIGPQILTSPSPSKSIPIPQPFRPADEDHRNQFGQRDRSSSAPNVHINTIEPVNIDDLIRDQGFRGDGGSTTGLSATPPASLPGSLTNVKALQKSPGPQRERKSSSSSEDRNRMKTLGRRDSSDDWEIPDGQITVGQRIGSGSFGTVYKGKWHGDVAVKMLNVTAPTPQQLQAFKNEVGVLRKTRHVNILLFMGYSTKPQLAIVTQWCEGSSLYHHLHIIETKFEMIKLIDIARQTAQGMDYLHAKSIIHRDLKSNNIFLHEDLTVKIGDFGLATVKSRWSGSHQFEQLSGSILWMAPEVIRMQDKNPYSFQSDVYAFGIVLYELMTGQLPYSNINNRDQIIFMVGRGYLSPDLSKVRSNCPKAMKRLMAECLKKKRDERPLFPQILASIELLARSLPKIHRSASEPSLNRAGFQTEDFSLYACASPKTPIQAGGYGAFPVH
Experimental: (§1) Crystalline Form A* of Compound 1 Sesqui-Maleate was tested against recombinant B-Raf (V600E) (PV3849), C-Raf (Y340D/Y341D) (PV3805) and wild-type Braf (PV3848) from Life Technologies in kinase activity assays based on homogeneous time-resolved fluorescence (HTRF) methodology (Cisbio Bioassays). The assays were carried out in a reaction mixture containing RAF kinases, ATP at KM concentration, GST-tagged MEK1 (K97R) and Crystalline Form A* of Compound 1 Sesqui-Maleate or DMSO in buffer containing 25 mM Tris pH7.4, 10 mM MgCl2, 0.5 mM EGTA, 0.5 mM Na3VO4, 5 mM beta-glycerophosphate, 0.01% Triton X-100, 2.5 mM DTT and 0.1% BSA. The kinase was incubated with Crystalline Form A* of Compound 1 Sesqui-Maleate for 1 hr at room temperature (RT) and the reaction was initiated by the addition of ATP and GST-MEK1 (Full-length protein with K97R mutation, recombinant protein purified from bacterial expression system). After reaction at RT for 1 hr, stop/detection solution was added according to the manufacture's instruction (Cisbio Bioassays). The stop/detection solution contained Eu3+ cryptate-conjugated anti-phospho MEK1/2 (Ser217/221) rabbit polyclonal antibody and d2-conjugated anti-GST mouse monoclonal antibody in buffer containing 25 mM Tris pH7.4, 400 mM KF, 50 mM EDTA, 0.1% BSA and 0.01% Triton X-100. The TR-FRET signals (ratio of fluorescence emission at 665 nm over emission at 620 nm with excitation at 337 nm wavelength) were measured on a PHERAstar FS plate reader (BMG Labtech) after 1.5 hr incubation. Phosphorylation of MEK1 led to the binding of anti-phospho-MEK1/2 antibody to GST-MEK1 protein that place fluorescent donor (Eu3+ crypate) in close proximity to the accepter d2 on the anti-GST antibody, thus resulting in a high degree of fluorescence resonance energy transfer from the donor fluorophore (at 620 nm) to the acceptor fluorophore (at 665 nm). The IC50 for Crystalline Form A* of Compound 1 Sesqui-Maleate was derived from fitting the dose-response % inhibition data to the four-parameter logistic model by Graphpad Prism software.

[4] = target: T1, C-Raf (Y340D/Y341D) (Homo sapiens, UniProt P04049, Y340D/Y341D); assay: Raf kinase enzymatic assay (HTRF); assay type: biochemical
T1 construct: purchased Life Technologies PV3805
T1 sequence (P04049 whole entry Y340D/Y341D): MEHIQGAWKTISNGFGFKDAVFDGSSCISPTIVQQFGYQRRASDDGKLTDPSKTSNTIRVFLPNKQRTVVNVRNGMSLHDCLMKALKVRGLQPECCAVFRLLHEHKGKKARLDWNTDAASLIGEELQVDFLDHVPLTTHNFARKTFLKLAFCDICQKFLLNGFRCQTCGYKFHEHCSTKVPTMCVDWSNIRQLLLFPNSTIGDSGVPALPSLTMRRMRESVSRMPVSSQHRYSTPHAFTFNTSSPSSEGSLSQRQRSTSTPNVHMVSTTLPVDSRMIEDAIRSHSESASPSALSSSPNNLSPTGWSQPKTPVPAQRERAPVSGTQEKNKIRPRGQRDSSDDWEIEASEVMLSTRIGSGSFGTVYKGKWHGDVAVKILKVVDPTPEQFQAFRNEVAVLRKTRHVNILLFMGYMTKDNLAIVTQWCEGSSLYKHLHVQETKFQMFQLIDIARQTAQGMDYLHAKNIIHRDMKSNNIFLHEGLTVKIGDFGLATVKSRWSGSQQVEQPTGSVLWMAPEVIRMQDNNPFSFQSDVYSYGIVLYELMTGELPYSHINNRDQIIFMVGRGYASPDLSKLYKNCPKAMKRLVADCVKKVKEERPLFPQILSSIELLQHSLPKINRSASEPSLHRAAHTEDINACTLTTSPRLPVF
Experimental: as §1

[5] = target: T2, HER2 (aa676-1255) (Homo sapiens, UniProt P04626); assay: HTRF KinEASE-TK kinase assay; assay type: biochemical
T2 construct: HER2 (aa676-1255, recombinant protein purified from insect expression system); made in house; host or cells: insect expression system
T2 sequence (P04626 676-1255): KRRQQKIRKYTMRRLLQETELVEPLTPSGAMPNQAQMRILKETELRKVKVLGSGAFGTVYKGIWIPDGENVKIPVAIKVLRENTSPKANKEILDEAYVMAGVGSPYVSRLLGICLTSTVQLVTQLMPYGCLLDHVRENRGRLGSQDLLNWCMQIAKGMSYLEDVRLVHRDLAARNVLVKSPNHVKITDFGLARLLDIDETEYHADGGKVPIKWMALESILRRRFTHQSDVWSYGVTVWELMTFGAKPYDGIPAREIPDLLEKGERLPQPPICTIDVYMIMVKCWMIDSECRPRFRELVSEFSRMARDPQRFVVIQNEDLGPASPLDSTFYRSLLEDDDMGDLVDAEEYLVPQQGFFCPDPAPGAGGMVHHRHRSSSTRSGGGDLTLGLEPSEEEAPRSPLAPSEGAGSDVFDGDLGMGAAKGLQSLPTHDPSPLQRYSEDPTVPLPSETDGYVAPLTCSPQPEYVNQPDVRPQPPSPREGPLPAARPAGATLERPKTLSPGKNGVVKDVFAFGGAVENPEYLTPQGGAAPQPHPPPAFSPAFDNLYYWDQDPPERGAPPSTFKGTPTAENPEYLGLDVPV
Experimental: (§2) Crystalline Form A* of Compound 1 Sesqui-Maleate was tested against recombinant EGFR/EPHA2/BTK (from Carna Biosciences), ITK/TEC/SRC/PDGFR-beta/TXK/FLT3/VEGFR2/RET (from Life Technologies), and HER2 (aa676-1255, recombinant protein purified from insect expression system) in HTRF KinEASE-TK assay from Cisbio Bioassays according to the manufacturer's instructions. The assay was carried out in a reaction mixture containing kinases, ATP at KM concentration, biotinylated peptide substrate (61TK0BLC, Cisbio Bioassays) and Crystalline Form A* of Compound 1 Sesqui-Maleate. […] After reaction, stop/detection solution was added according to the manufacture's instruction. The stop/detection solution contained Eu+ cryptate conjugated antiphosphotyrosine antibody (61T66kLB, CisBio Bioassays) and Streptavidin-XL665 (610SAXLB, CisBio Bioassays) in buffer containing 25 mM Tris pH7.4, 400 mM KF, 50 mM EDTA, 0.01% BSA, 0.01% Triton X-100. The TR-FRET signals (ratio of fluorescence emission at 665 nm over emission at 620 nm with excitation at 337 nm wavelength) were recorded on a PHERAstar FS plate reader (BMG Labtech) after 1 hr incubation. Phosphorylation of biotinylated peptide substrate led to the binding of both Eu+ cryptate conjugated antiphosphotyrosine antibody and streptaviding-XL665 to the biotinylated peptide. The close proximity of the donor (Eu+ cryptate) and acceptor (XL665) fluorophore led to a high degree of fluorescence resonance energy transfer from the donor fluorophore (at 620 nm) to the acceptor fluorophore (at 665 nm). The IC50 for Crystalline Form A* of Compound 1 Sesqui-Maleate was derived from fitting the dose-response % inhibition data to the four-parameter logistic model by Graphpad Prism software.

[6] = target: T3, VEGFR2 (Homo sapiens, UniProt P35968); assay: HTRF KinEASE-TK kinase assay; assay type: biochemical
T3 construct: purchased Life Technologies
T3 sequence (P35968 20-1356): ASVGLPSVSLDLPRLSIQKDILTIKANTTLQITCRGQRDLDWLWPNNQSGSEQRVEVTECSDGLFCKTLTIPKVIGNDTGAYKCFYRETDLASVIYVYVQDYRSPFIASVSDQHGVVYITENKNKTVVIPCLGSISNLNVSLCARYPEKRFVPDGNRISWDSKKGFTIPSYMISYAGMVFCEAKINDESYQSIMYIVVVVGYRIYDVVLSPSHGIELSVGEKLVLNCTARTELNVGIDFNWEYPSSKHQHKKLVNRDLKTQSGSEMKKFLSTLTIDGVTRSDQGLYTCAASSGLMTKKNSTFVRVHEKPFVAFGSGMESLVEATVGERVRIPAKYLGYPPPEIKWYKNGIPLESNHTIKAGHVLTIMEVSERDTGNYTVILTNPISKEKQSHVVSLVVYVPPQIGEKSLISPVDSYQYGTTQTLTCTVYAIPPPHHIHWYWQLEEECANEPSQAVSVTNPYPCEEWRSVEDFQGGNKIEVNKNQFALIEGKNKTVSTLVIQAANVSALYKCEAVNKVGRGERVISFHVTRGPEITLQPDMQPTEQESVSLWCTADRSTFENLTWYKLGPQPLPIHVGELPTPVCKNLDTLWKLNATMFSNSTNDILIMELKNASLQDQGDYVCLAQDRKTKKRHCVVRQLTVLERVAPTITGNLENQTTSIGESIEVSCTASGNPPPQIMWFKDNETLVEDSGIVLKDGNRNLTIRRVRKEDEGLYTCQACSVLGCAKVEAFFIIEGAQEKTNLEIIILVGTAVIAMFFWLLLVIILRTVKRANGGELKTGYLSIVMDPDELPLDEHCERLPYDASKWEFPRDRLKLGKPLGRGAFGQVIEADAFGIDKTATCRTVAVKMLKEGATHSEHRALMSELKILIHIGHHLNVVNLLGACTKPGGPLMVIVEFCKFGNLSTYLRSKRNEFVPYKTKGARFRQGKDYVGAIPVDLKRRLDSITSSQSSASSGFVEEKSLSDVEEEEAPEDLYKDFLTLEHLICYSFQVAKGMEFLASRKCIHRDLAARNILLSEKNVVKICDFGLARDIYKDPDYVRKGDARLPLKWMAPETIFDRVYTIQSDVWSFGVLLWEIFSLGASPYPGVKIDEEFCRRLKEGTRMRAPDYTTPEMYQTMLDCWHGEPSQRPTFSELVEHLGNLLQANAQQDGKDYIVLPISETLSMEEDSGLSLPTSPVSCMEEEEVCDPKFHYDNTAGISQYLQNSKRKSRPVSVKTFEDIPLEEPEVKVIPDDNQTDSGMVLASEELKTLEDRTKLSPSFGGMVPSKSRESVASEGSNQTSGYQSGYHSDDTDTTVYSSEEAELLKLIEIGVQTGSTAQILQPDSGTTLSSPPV
Experimental: as §2

[7] = target: T4, WT-EGFR (Homo sapiens, UniProt P00533); assay: HTRF KinEASE-TK kinase assay; assay type: biochemical
T4 construct: purchased Carna Biosciences
T4 sequence (P00533 25-1210): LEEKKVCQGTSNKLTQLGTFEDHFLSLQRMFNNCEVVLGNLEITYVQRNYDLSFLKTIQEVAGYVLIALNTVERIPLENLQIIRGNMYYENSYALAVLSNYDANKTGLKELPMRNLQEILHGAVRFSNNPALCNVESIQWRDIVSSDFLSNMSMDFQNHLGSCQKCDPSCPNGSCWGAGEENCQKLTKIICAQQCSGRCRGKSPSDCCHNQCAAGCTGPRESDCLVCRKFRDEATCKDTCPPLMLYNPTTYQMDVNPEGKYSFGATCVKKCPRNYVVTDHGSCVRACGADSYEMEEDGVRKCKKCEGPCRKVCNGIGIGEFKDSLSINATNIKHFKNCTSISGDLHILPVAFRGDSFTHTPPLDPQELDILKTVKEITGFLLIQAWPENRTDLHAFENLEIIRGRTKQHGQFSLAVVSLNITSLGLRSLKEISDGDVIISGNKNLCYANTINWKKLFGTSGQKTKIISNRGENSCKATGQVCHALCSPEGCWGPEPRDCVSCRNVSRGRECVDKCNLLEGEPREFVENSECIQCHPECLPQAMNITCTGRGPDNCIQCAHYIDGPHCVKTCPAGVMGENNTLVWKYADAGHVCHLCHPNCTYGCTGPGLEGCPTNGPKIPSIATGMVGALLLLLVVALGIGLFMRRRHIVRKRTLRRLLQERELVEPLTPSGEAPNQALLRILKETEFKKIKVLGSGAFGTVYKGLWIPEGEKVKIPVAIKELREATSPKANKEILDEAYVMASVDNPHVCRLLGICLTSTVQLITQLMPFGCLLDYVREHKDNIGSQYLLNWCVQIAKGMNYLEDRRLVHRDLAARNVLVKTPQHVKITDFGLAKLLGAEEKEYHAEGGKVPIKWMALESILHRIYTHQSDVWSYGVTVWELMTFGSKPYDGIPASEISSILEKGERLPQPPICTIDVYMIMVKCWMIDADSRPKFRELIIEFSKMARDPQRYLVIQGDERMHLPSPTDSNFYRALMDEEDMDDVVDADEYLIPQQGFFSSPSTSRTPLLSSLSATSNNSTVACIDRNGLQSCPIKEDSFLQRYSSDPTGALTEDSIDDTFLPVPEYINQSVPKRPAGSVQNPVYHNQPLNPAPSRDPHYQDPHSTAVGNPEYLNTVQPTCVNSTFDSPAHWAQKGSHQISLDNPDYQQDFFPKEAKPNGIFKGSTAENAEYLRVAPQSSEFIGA
Experimental: as §2

## O=C1CCc2c(Oc3ccc4c(c3)[C@@H]3[C@H](O4)[C@H]3c3nc4ccc(C(F)(F)F)cc4[nH]3)ccnc2N1 [5-(((1R,1aS,6bR)-1-(6-(trifluoromethyl)-1H-benzo[d]imidazol-2-yl)-1a,6b-dihydro-1H-cyclopropa[b]benzofuran-5-yl)oxy)-3,4-dihydro-1,8-naphthyridin-2(1H)-one sesqui-maleate salt]
[1]
  water uptake: 0.1801%
[2]
  clinical safety of single doses: safe and well tolerated
[3]; WT-BRAF, ATP at KM
  IC50: 0.069 µM
[3]; wild-type B-RAF
  enzyme inhibition: potent and reversible inhibitor
[4]; C-RAF
  enzyme inhibition: potent and reversible inhibitor
[4]; CRAF Y340, 341D, ATP at KM
  IC50: 0.0035 µM
[5]
  enzyme inhibition: weak inhibition
[5]; ATP at KM
  IC50: 2.57 µM
[6]
  enzyme inhibition: potently inhibits
[6]; ATP at KM
  IC50: 0.022 µM
[7]; EGFR
  enzyme inhibition: potently inhibits
[7]; WT-EGFR, ATP at KM
  IC50: 0.044 µM
